Entries after “also recorded” stand apart in the source; their conditions may differ. Each block holds one compound with its values, some of them ahead of it.
Experiments:
CYP2C9 = target: T1, CYP2C9 (Homo sapiens, UniProt P11712); assay: Time-dependent inhibition of CYP450 enzymes in human liver microsomes: CYP2C9; type: in vitro ADME
T1 construct: from tissue; host or cells: pooled human liver microsomes
Method: (§1) An assessment of the time-dependent Inhibitory Potential of the test compounds against Principal Human Cytochrome P450 Isozymes using Human Liver Microsomes was also carried out using standard methods (Grimm et al, Drug Metab. Dispos., Jul; 37(7):1355-70. doi: 10.1124/dmd.109.026716, 2009). Pooled human microsomes and selective CYP probe substrates were used for in vitro assessment of test compounds at 25 and 50 μM as time-dependent inhibitors of […] human hepatic cytochrome P450 isozymes (CYP1A2, 2B6, 2C9, 2C19, 2D6, and 3A4). LC-MS/MS was used to quantify metabolite formation. The inhibition of each P450 enzyme in human liver microsomes was measured as the percentage decrease in the activity of marker metabolite formation as measured by LC-MS/MS compared to non-inhibited controls (=100% activity) at time zero and after 30 minutes incubation. The occurrence of any time dependent inhibition was then expressed as the fold change in enzyme activity at time zero relative to the activity after 30 minutes incubation. The time dependent inhibition for the compound 5-(3,4-difluorobenzyl)-8-((1 r,4r)-4-methylcyclohexyl)-6,9-dioxo-2,5, 8-triazaspiro [3.5]nonane-2-carbaldehyde (Compound 1) against CYP1A2, […], CYP2C8, CYP2C9, CYP2C19, CYP2D6, CYP3A4-M and CYP3A4-T is shown in Table B-12.

CYP2B6 = target: T2, CYP2B6 (Homo sapiens, UniProt P20813); assay: Time-dependent inhibition of CYP450 enzymes in human liver microsomes: CYP2B6; type: in vitro ADME
T2 construct: from tissue; host or cells: pooled human liver microsomes
T2 sequence (P20813 1-491): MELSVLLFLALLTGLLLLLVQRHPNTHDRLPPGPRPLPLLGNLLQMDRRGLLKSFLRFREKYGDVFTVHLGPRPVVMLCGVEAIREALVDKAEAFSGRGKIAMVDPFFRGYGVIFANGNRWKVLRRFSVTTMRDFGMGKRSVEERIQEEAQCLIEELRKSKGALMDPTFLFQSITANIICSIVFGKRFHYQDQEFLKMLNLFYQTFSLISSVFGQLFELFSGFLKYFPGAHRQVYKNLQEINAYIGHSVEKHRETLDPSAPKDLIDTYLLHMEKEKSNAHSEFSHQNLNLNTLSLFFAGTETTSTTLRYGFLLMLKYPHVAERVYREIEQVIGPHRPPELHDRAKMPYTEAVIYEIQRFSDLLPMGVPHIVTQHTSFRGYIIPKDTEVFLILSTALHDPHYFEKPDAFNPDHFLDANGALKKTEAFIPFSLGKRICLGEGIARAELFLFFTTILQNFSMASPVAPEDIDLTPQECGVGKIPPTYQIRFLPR
Method: as §1

CYP2C19 = target: T3, CYP2C19 (Homo sapiens, UniProt P33261); assay: Time-dependent inhibition of CYP450 enzymes in human liver microsomes: CYP2C19; type: in vitro ADME; settings: for fold change in activity (time dependent inhibition), 2C19: human liver microsomes
T3 construct: from tissue; host or cells: pooled human liver microsomes
Method: as §1

[1] = Stability of Form II in solvents after 24 hours (HPLC); type: physicochemical; settings: for Form II Peak Area T = 24 hours: 24 hours at ambient (25° C.); for Form II Peak Area: initial injection; for Visual Observations (signs of degradation in chromatograms): initial vs T = 24 hours;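 on Form II Peak Area T = 24 hours: same diluted solubility sample reinjected at the initial injection volume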
Text: The chromatograms were then overlayed and visual signs of degradation were noted, i.e., loss of compound 1 peak area or increase of other peaks in the chromatography.

[2] = Short-term static storage stability of the solid (XRPD, HPLC); type: physicochemical
Method: Purity analysis was performed on an Agilent HP1100/Infinity 111260 series system equipped with a diode array detector and using OpenLAB software. The full method details are provided below.
For short-term (8 days or fewer) stability experiments, solid material was placed into open vials at elevated storage conditions, unless otherwise stated. These conditions were achieved using saturated salt solutions at specific temperatures within sealed containers. Storage containers were pre-equilibrated prior to input of samples.

T3 sequence (P33261 whole entry): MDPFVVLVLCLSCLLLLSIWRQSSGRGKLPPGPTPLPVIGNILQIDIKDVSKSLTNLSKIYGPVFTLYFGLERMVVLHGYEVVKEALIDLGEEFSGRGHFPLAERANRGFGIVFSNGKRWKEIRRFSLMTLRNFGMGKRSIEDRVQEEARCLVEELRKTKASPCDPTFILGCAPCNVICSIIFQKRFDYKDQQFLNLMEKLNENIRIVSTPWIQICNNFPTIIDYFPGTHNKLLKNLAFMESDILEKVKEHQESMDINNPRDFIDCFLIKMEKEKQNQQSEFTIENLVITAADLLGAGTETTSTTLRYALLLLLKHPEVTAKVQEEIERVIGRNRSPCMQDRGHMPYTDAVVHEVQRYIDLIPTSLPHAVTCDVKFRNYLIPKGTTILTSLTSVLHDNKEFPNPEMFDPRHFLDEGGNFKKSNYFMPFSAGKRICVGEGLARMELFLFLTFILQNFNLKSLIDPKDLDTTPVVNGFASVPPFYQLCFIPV
T1 sequence (P11712 whole entry): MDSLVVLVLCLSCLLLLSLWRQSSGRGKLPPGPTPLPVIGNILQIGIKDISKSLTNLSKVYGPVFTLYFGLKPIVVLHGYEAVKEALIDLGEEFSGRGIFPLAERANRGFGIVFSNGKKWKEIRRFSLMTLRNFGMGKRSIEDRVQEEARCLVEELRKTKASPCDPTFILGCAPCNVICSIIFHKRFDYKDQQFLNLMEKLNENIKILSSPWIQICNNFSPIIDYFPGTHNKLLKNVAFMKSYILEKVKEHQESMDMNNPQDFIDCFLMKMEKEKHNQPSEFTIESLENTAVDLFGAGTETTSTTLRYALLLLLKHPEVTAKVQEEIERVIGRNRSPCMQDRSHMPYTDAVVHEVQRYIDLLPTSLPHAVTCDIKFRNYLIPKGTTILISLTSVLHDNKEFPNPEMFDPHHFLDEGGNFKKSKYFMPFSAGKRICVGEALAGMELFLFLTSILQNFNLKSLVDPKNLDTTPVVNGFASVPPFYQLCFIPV

(% Activity NADPH T0)/(% Activity NADPH T30) (CYP2C9; CYP2C9, 25 μM): 1.0
(% Activity NADPH T0)/(% Activity NADPH T30) (CYP2C9; CYP2C9, 50 μM): 0.9
activity at 30 min, 25 µM (CYP2C9; human, pooled human liver microsomes, CYP2C9, 25 μM, 30 minutes incubation, read-out: % Activity NADPH T30): 84%
activity at 0 min, 25 µM (CYP2C9; human, pooled human liver microsomes, CYP2C9, 25 μM, time zero, read-out: % Activity NADPH T0): 83%
activity at 30 min, 50 µM (CYP2C9; human, pooled human liver microsomes, CYP2C9, 50 μM, 30 minutes incubation, read-out: % Activity NADPH T30): 71%
activity at 0 min, 50 µM (CYP2C9; human, pooled human liver microsomes, CYP2C9, 50 μM, time zero, read-out: % Activity NADPH T0): 63%
(% Activity NADPH T0)/(% Activity NADPH T30) (CYP2B6; CYP2B6, 25 μM): 1.1
(% Activity NADPH T0)/(% Activity NADPH T30) (CYP2B6; CYP2B6, 50 μM): 1.0
activity at 30 min, 25 µM (CYP2B6; human, pooled human liver microsomes, CYP2B6, 25 μM, 30 minutes incubation, read-out: % Activity NADPH T30): 84%
activity at 0 min, 25 µM (CYP2B6; human, pooled human liver microsomes, CYP2B6, 25 μM, time zero, read-out: % Activity NADPH T0): 95%
activity at 30 min, 50 µM (CYP2B6; human, pooled human liver microsomes, CYP2B6, 50 μM, 30 minutes incubation, read-out: % Activity NADPH T30): 76%
activity at 0 min, 50 µM (CYP2B6; human, pooled human liver microsomes, CYP2B6, 50 μM, time zero, read-out: % Activity NADPH T0): 76%
(% Activity NADPH T0)/(% Activity NADPH T30) (CYP2C19; CYP2C19, 25 μM): 1.4
(% Activity NADPH T0)/(% Activity NADPH T30) (CYP2C19; CYP2C19, 50 μM): 1.1
fold change in activity (time dependent inhibition), 2C19 (CYP2C19; 25 μM): 1.4 fold
fold change in activity (time dependent inhibition), 2C19 (CYP2C19; 50 μM): no change in activity
activity at 30 min, 25 µM (CYP2C19; human, pooled human liver microsomes, CYP2C19, 25 μM, 30 minutes incubation, read-out: % Activity NADPH T30): 86%
activity at 0 min, 25 µM (CYP2C19; human, pooled human liver microsomes, CYP2C19, 25 μM, time zero, read-out: % Activity NADPH T0): 117%
activity at 30 min, 50 µM (CYP2C19; human, pooled human liver microsomes, CYP2C19, 50 μM, 30 minutes incubation, read-out: % Activity NADPH T30): 75%
activity at 0 min, 50 µM (CYP2C19; human, pooled human liver microsomes, CYP2C19, 50 μM, time zero, read-out: % Activity NADPH T0): 84%
SMILES: C[C@H]1CC[C@H](N2CC(=O)N(Cc3ccc(F)c(F)c3)C3(CN(C=O)C3)C2=O)CC1 [Compound 1, 5-(3,4-difluorobenzyl)-8-((1r,4r)-4-methylcyclohexyl)-6,9-dioxo-2,5,8-triazaspiro[3.5]nonane-2-carbaldehyde]

Form II Peak Area T = 24 hours ([1]; 2-BuOH): 35.2
Form II Peak Area ([1]; 2-BuOH): 35.3
Visual Observations (signs of degradation in chromatograms) ([1]; 2-BuOH): No sign of degradation
Form II Peak Area T = 24 hours ([1]; 2-Me-THF): 51.5
Form II Peak Area ([1]; 2-Me-THF): 51.7
Visual Observations (signs of degradation in chromatograms) ([1]; 2-Me-THF): No sign of degradation
Form II Peak Area T = 24 hours ([1]; Acetone): 167.7
Form II Peak Area ([1]; Acetone): 166.0
Form II Peak Area T = 24 hours ([1]; DI Water): 10.8
Form II Peak Area ([1]; DI Water): 10.8
Visual Observations (signs of degradation in chromatograms) ([1]; DI Water): No sign of degradation
Form II Peak Area T = 24 hours ([1]; DMSO): 194.2
Form II Peak Area ([1]; DMSO): 193.2
Form II Peak Area T = 24 hours ([1]; EtOH): 54.7
Form II Peak Area ([1]; EtOH): 53.1
Form II Peak Area T = 24 hours ([1]; IPA): 30.5
Form II Peak Area ([1]; IPA): 30.3
Visual Observations (signs of degradation in chromatograms) ([1]; IPA): No sign of degradation
Form II Peak Area T = 24 hours ([1]; Isopropyl acetate): 66.3
Form II Peak Area ([1]; Isopropyl acetate): 66.6
Form II Peak Area T = 24 hours ([1]; MIBK): 85.1
Form II Peak Area ([1]; MIBK): 85.1
Visual Observations (signs of degradation in chromatograms) ([1]; MIBK): No sign of degradation
Form II Peak Area T = 24 hours ([1]; MeCN): 190.4
Form II Peak Area ([1]; MeCN): 188.0
Form II Peak Area T = 24 hours ([1]; MeOH): 202.1
Form II Peak Area ([1]; MeOH): 199.0
Form II Peak Area T = 24 hours ([1]; THF): 177.4
Form II Peak Area ([1]; THF): 177.3
Form II Peak Area T = 24 hours ([1]; Tert-Butylmetyl ether): 24.7
Form II Peak Area ([1]; Tert-Butylmetyl ether): 24.2
Visual Observations (signs of degradation in chromatograms) ([1]; Tert-Butylmetyl ether): Large impurity peak eluting after
Form II Peak Area T = 24 hours ([1]; Toluene): 40.5
Form II Peak Area ([1]; Toluene): 41.2
Visual Observations (signs of degradation in chromatograms) ([1]; Toluene): No sign of degradation
HPLC purity ([2]; Before Storage): 98.2%
XRPD ([2]; Before Storage): Form II
XRPD ([2]; Storage at 25° C./97% RH for 8 days): Unchanged by XRPD
XRPD ([2]; Storage at 40° C./75% RH for 8 days): Unchanged by XRPD
SMILES: C[C@H]1CC[C@H](N2CC(=O)N(Cc3ccc(F)c(F)c3)C3(CN(C=O)C3)C2=O)CC1 [Form II, 5-(3,4-difluorobenzyl)-8-((1r,4r)-4-methylcyclohexyl)-6,9-dioxo-2,5,8-triazaspiro[3.5]nonane-2-carbaldehyde]
Visual Observations (signs of degradation in chromatograms) ([1]; Acetone): no visual signs of further degradation; also recorded: No sign of degradation
Visual Observations (signs of degradation in chromatograms) ([1]; DMSO): no visual signs of further degradation; also recorded: No sign of degradation
Visual Observations (signs of degradation in chromatograms) ([1]; EtOH): did not appear to degrade further; also recorded: Late eluting impurity peak, present
Visual Observations (signs of degradation in chromatograms) ([1]; Isopropyl acetate): did not seem to degrade further; also recorded: Impurities eluting after compound 1
Visual Observations (signs of degradation in chromatograms) ([1]; MeCN): no visual signs of further degradation; also recorded: No sign of degradation
Visual Observations (signs of degradation in chromatograms) ([1]; MeOH): no visual signs of further degradation; also recorded: No sign of degradation
Visual Observations (signs of degradation in chromatograms) ([1]; THF): no visual signs of further degradation; also recorded: No sign of degradation

From patent US20240132498A1, “CRYSTALLINE FORMS OF 5-(3,4-DIFLUOROBENZYL)-8-((1R,4R)-4-METHYLCYCLOHEXYL)-6,9-DIOXO-2,5,8-TRIAZASPIRO[3.5]NONANE-2-CARBALDEHYDE” (Cytokinetics, Incorporated, priority 2022, published 2024)
